Measurements reported in ChEMBL document CHEMBL3044591, “Biological Activity of Some 2-Arylamino-4-aryloxyacetyl-2-1, 3, 4-thiadiazolidine Derivatives” (1994).

Test system: Bipolaris oryzae
Experiment: Fungicidal activity against Bipolaris oryzae assessed as inhibition at 10 ppm measured after 96 hr by agar growth technique
Type: functional

Compared with Cc1cccc(OCC(=O)N2N=C(Nc3ccc(Cl)cc3)SC2(C)C)c1, Cc1ccc(NC2=NN(C(=O)COc3ccccc3Cl)C(C)(C)S2)cc1 is lower in inhibition at 10 ppm: 38% for the first, 32% for the second.

Going from Cc1cccc(OCC(=O)N2N=C(Nc3ccccc3)SC2c2ccccc2)c1 (stereo not drawn) to Cc1ccc(NC2=NN(C(=O)COc3cccc(C)c3)C(c3ccccc3)S2)cc1 (stereo not drawn), the inhibition at 10 ppm rises from 39% to 46%.

CC1(C)SC(Nc2ccccc2)=NN1C(=O)COc1ccccc1Cl and COc1ccc(NC2=NN(C(=O)COc3ccccc3Cl)C(C)(C)S2)cc1 are the same in inhibition at 10 ppm: 31% for the first, 31% for the second.

First: COc1ccc(NC2=NN(C(=O)COc3cccc(C)c3)C(c3ccccc3)S2)cc1 (stereo not drawn)
Second: Cc1ccc(NC2=NN(C(=O)COc3ccccc3Cl)C(c3ccccc3)S2)cc1 (stereo not drawn)
The inhibition at 10 ppm of the first is higher: 50% for the first, 39% for the second.

Test system: Bipolaris oryzae
Experiment: Fungicidal activity against Bipolaris oryzae assessed as inhibition at 100 ppm measured after 96 hr by agar growth technique
Type: functional

First: Cc1cccc(OCC(=O)N2N=C(Nc3ccc(Cl)cc3)SC2(C)C)c1
Second: Cc1ccc(NC2=NN(C(=O)COc3ccccc3Cl)C(C)(C)S2)cc1
The inhibition at 100 ppm of the first is higher: 47% for the first, 44% for the second.

Going from Cc1cccc(OCC(=O)N2N=C(Nc3ccccc3)SC2c2ccccc2)c1 (stereo not drawn) to Cc1ccc(NC2=NN(C(=O)COc3cccc(C)c3)C(c3ccccc3)S2)cc1 (stereo not drawn), the inhibition at 100 ppm rises from 49% to 61%.

First: CC1(C)SC(Nc2ccccc2)=NN1C(=O)COc1ccccc1Cl
Second: COc1ccc(NC2=NN(C(=O)COc3ccccc3Cl)C(C)(C)S2)cc1
The inhibition at 100 ppm of the first is lower: 42% for the first, 53% for the second.

First: COc1ccc(NC2=NN(C(=O)COc3cccc(C)c3)C(c3ccccc3)S2)cc1 (stereo not drawn)
Second: Cc1ccc(NC2=NN(C(=O)COc3ccccc3Cl)C(c3ccccc3)S2)cc1 (stereo not drawn)
The inhibition at 100 ppm of the first is higher: 65% for the first, 50% for the second.

Test system: Bipolaris oryzae
Experiment: Fungicidal activity against Bipolaris oryzae assessed as inhibition at 1000 ppm measured after 96 hr by agar growth technique
Type: functional

Compared with Cc1cccc(OCC(=O)N2N=C(Nc3ccc(Cl)cc3)SC2(C)C)c1, Cc1ccc(NC2=NN(C(=O)COc3ccccc3Cl)C(C)(C)S2)cc1 is lower in inhibition at 1000 ppm: 59% for the first, 56% for the second.

Going from Cc1cccc(OCC(=O)N2N=C(Nc3ccccc3)SC2c2ccccc2)c1 (stereo not drawn) to Cc1ccc(NC2=NN(C(=O)COc3cccc(C)c3)C(c3ccccc3)S2)cc1 (stereo not drawn), the inhibition at 1000 ppm rises from 61% to 68%.

First: CC1(C)SC(Nc2ccccc2)=NN1C(=O)COc1ccccc1Cl
Second: COc1ccc(NC2=NN(C(=O)COc3ccccc3Cl)C(C)(C)S2)cc1
The inhibition at 1000 ppm of the first is lower: 52% for the first, 60% for the second.

Going from COc1ccc(NC2=NN(C(=O)COc3cccc(C)c3)C(c3ccccc3)S2)cc1 (stereo not drawn) to Cc1ccc(NC2=NN(C(=O)COc3ccccc3Cl)C(c3ccccc3)S2)cc1 (stereo not drawn), the inhibition at 1000 ppm falls from 72% to 60%.

Test system: Aspergillus niger
Experiment: Fungicidal activity against Aspergillus niger assessed as inhibition at 10 ppm measured after 96 hr by agar growth technique
Type: functional

Compared with Cc1cccc(OCC(=O)N2N=C(Nc3ccc(Cl)cc3)SC2(C)C)c1, Cc1ccc(NC2=NN(C(=O)COc3ccccc3Cl)C(C)(C)S2)cc1 is higher in inhibition at 10 ppm: 48% for the first, 49% for the second.

Compared with Cc1cccc(OCC(=O)N2N=C(Nc3ccccc3)SC2c2ccccc2)c1 (stereo not drawn), Cc1ccc(NC2=NN(C(=O)COc3cccc(C)c3)C(c3ccccc3)S2)cc1 (stereo not drawn) is higher in inhibition at 10 ppm: 38% for the first, 47% for the second.

Going from CC1(C)SC(Nc2ccccc2)=NN1C(=O)COc1ccccc1Cl to COc1ccc(NC2=NN(C(=O)COc3ccccc3Cl)C(C)(C)S2)cc1, the inhibition at 10 ppm falls from 51% to 37%.

First: COc1ccc(NC2=NN(C(=O)COc3cccc(C)c3)C(c3ccccc3)S2)cc1 (stereo not drawn)
Second: Cc1ccc(NC2=NN(C(=O)COc3ccccc3Cl)C(c3ccccc3)S2)cc1 (stereo not drawn)
The inhibition at 10 ppm of the first is higher: 51% for the first, 43% for the second.

Test system: Aspergillus niger
Experiment: Fungicidal activity against Aspergillus niger assessed as inhibition at 100 ppm measured after 96 hr by agar growth technique
Type: functional

Compared with Cc1cccc(OCC(=O)N2N=C(Nc3ccc(Cl)cc3)SC2(C)C)c1, Cc1ccc(NC2=NN(C(=O)COc3ccccc3Cl)C(C)(C)S2)cc1 is lower in inhibition at 100 ppm: 54% for the first, 52% for the second.

First: Cc1cccc(OCC(=O)N2N=C(Nc3ccccc3)SC2c2ccccc2)c1 (stereo not drawn)
Second: Cc1ccc(NC2=NN(C(=O)COc3cccc(C)c3)C(c3ccccc3)S2)cc1 (stereo not drawn)
The inhibition at 100 ppm of the first is lower: 54% for the first, 62% for the second.

Going from CC1(C)SC(Nc2ccccc2)=NN1C(=O)COc1ccccc1Cl to COc1ccc(NC2=NN(C(=O)COc3ccccc3Cl)C(C)(C)S2)cc1, the inhibition at 100 ppm rises from 44% to 56%.

Compared with COc1ccc(NC2=NN(C(=O)COc3cccc(C)c3)C(c3ccccc3)S2)cc1 (stereo not drawn), Cc1ccc(NC2=NN(C(=O)COc3ccccc3Cl)C(c3ccccc3)S2)cc1 (stereo not drawn) is lower in inhibition at 100 ppm: 67% for the first, 52% for the second.

Test system: Setaria viridis
Experiment: Herbicidal activity against Setaria viridis (green foxtail) assessed as killing at 6 kg/ha by post-emergent activity assay
Type: functional

Cc1cccc(OCC(=O)N2N=C(Nc3ccc(Cl)cc3)SC2(C)C)c1 and Cc1ccc(NC2=NN(C(=O)COc3ccccc3Cl)C(C)(C)S2)cc1 are the same in Activity: 50% for the first, 50% for the second.

First: Cc1cccc(OCC(=O)N2N=C(Nc3ccccc3)SC2c2ccccc2)c1 (stereo not drawn)
Second: Cc1ccc(NC2=NN(C(=O)COc3cccc(C)c3)C(c3ccccc3)S2)cc1 (stereo not drawn)
The Activity of the first is higher: 60% for the first, 20% for the second.

Going from CC1(C)SC(Nc2ccccc2)=NN1C(=O)COc1ccccc1Cl to COc1ccc(NC2=NN(C(=O)COc3ccccc3Cl)C(C)(C)S2)cc1, the Activity rises from 50% to 100%.

First: COc1ccc(NC2=NN(C(=O)COc3cccc(C)c3)C(c3ccccc3)S2)cc1 (stereo not drawn)
Second: Cc1ccc(NC2=NN(C(=O)COc3ccccc3Cl)C(c3ccccc3)S2)cc1 (stereo not drawn)
The Activity of the first is higher: 100% for the first, 50% for the second.

Test system: Aspergillus niger
Experiment: Fungicidal activity against Aspergillus niger assessed as inhibition at 1000 ppm measured after 96 hr by agar growth technique
Type: functional

Cc1cccc(OCC(=O)N2N=C(Nc3ccc(Cl)cc3)SC2(C)C)c1 and Cc1ccc(NC2=NN(C(=O)COc3ccccc3Cl)C(C)(C)S2)cc1 are the same in inhibition at 1000 ppm: 63% for the first, 63% for the second.

Compared with Cc1cccc(OCC(=O)N2N=C(Nc3ccccc3)SC2c2ccccc2)c1 (stereo not drawn), Cc1ccc(NC2=NN(C(=O)COc3cccc(C)c3)C(c3ccccc3)S2)cc1 (stereo not drawn) is higher in inhibition at 1000 ppm: 67% for the first, 70% for the second.

Going from CC1(C)SC(Nc2ccccc2)=NN1C(=O)COc1ccccc1Cl to COc1ccc(NC2=NN(C(=O)COc3ccccc3Cl)C(C)(C)S2)cc1, the inhibition at 1000 ppm rises from 56% to 65%.

First: COc1ccc(NC2=NN(C(=O)COc3cccc(C)c3)C(c3ccccc3)S2)cc1 (stereo not drawn)
Second: Cc1ccc(NC2=NN(C(=O)COc3ccccc3Cl)C(c3ccccc3)S2)cc1 (stereo not drawn)
The inhibition at 1000 ppm of the first is higher: 74% for the first, 65% for the second.

Test system: Abutilon theophrasti
Experiment: Herbicidal activity against Abutilon theophrasti (velvetleaf) assessed as killing at 6 kg/ha by post-emergent activity assay
Type: functional

First: Cc1cccc(OCC(=O)N2N=C(Nc3ccc(Cl)cc3)SC2(C)C)c1
Second: Cc1ccc(NC2=NN(C(=O)COc3ccccc3Cl)C(C)(C)S2)cc1
The Activity of the first is lower: 40% for the first, 50% for the second.

Cc1cccc(OCC(=O)N2N=C(Nc3ccccc3)SC2c2ccccc2)c1 (stereo not drawn) and Cc1ccc(NC2=NN(C(=O)COc3cccc(C)c3)C(c3ccccc3)S2)cc1 (stereo not drawn) are the same in Activity: 60% for the first, 60% for the second.

Compared with CC1(C)SC(Nc2ccccc2)=NN1C(=O)COc1ccccc1Cl, COc1ccc(NC2=NN(C(=O)COc3ccccc3Cl)C(C)(C)S2)cc1 is higher in Activity: 40% for the first, 100% for the second.

Compared with COc1ccc(NC2=NN(C(=O)COc3cccc(C)c3)C(c3ccccc3)S2)cc1 (stereo not drawn), Cc1ccc(NC2=NN(C(=O)COc3ccccc3Cl)C(c3ccccc3)S2)cc1 (stereo not drawn) is lower in Activity: 100% for the first, 40% for the second.

Test system: Echinochloa crus-galli
Experiment: Herbicidal activity against Echinochloa crus-galli (barnyard grass) assessed as killing at 6 kg/ha by post-emergent activity assay
Type: functional

Compared with Cc1cccc(OCC(=O)N2N=C(Nc3ccc(Cl)cc3)SC2(C)C)c1, Cc1ccc(NC2=NN(C(=O)COc3ccccc3Cl)C(C)(C)S2)cc1 is lower in Activity: 50% for the first, 20% for the second.

Going from Cc1cccc(OCC(=O)N2N=C(Nc3ccccc3)SC2c2ccccc2)c1 (stereo not drawn) to Cc1ccc(NC2=NN(C(=O)COc3cccc(C)c3)C(c3ccccc3)S2)cc1 (stereo not drawn), the Activity falls from 60% to 30%.

Compared with CC1(C)SC(Nc2ccccc2)=NN1C(=O)COc1ccccc1Cl, COc1ccc(NC2=NN(C(=O)COc3ccccc3Cl)C(C)(C)S2)cc1 is higher in Activity: 60% for the first, 100% for the second.

Compared with COc1ccc(NC2=NN(C(=O)COc3cccc(C)c3)C(c3ccccc3)S2)cc1 (stereo not drawn), Cc1ccc(NC2=NN(C(=O)COc3ccccc3Cl)C(c3ccccc3)S2)cc1 (stereo not drawn) is lower in Activity: 100% for the first, 50% for the second.

Test system: Triticum aestivum
Experiment: Herbicidal activity against Triticum aestivum (wheat) assessed as killing at 6 kg/ha by post-emergent activity assay
Type: functional

Going from Cc1cccc(OCC(=O)N2N=C(Nc3ccc(Cl)cc3)SC2(C)C)c1 to Cc1ccc(NC2=NN(C(=O)COc3ccccc3Cl)C(C)(C)S2)cc1, the Activity rises from 10% to 30%.

Going from Cc1cccc(OCC(=O)N2N=C(Nc3ccccc3)SC2c2ccccc2)c1 (stereo not drawn) to Cc1ccc(NC2=NN(C(=O)COc3cccc(C)c3)C(c3ccccc3)S2)cc1 (stereo not drawn), the Activity rises from 0% to 10%.

First: CC1(C)SC(Nc2ccccc2)=NN1C(=O)COc1ccccc1Cl
Second: COc1ccc(NC2=NN(C(=O)COc3ccccc3Cl)C(C)(C)S2)cc1
The Activity of the first is higher: 20% for the first, 10% for the second.

First: COc1ccc(NC2=NN(C(=O)COc3cccc(C)c3)C(c3ccccc3)S2)cc1 (stereo not drawn)
Second: Cc1ccc(NC2=NN(C(=O)COc3ccccc3Cl)C(c3ccccc3)S2)cc1 (stereo not drawn)
The Activity of the first is lower: 10% for the first, 30% for the second.

Test system: Sorghum halepense
Experiment: Herbicidal activity against Sorghum halepense (Johnson grass) assessed as killing at 6 kg/ha by post-emergent activity assay
Type: functional

Going from Cc1cccc(OCC(=O)N2N=C(Nc3ccc(Cl)cc3)SC2(C)C)c1 to Cc1ccc(NC2=NN(C(=O)COc3ccccc3Cl)C(C)(C)S2)cc1, the Activity falls from 60% to 50%.

Compared with Cc1cccc(OCC(=O)N2N=C(Nc3ccccc3)SC2c2ccccc2)c1 (stereo not drawn), Cc1ccc(NC2=NN(C(=O)COc3cccc(C)c3)C(c3ccccc3)S2)cc1 (stereo not drawn) is lower in Activity: 60% for the first, 50% for the second.

First: CC1(C)SC(Nc2ccccc2)=NN1C(=O)COc1ccccc1Cl
Second: COc1ccc(NC2=NN(C(=O)COc3ccccc3Cl)C(C)(C)S2)cc1
The Activity of the first is lower: 70% for the first, 100% for the second.

First: COc1ccc(NC2=NN(C(=O)COc3cccc(C)c3)C(c3ccccc3)S2)cc1 (stereo not drawn)
Second: Cc1ccc(NC2=NN(C(=O)COc3ccccc3Cl)C(c3ccccc3)S2)cc1 (stereo not drawn)
The Activity of the first is higher: 100% for the first, 60% for the second.
